Laboratory results published in patent publication US8211445B2, “PSM peptides as vaccine targets against methicillin-resistant Staphylococcus” (The United States of America, as represented by the …, priority 2007, dated 2012).

Experiments:
Type in all cases: cell-based
[1] = tested on: human neutrophils; assay: Priming of human neutrophils (surface expression of CD11b and gp91phox); details: PSM-mec vs PSMα3; in the range of other α-type PSMs and δ-toxin, higher than β-type PSMs
Experimental: (§1) Priming of PMNs by synthetic PSMs was determined by increased surface expression of CD11b and gp91phox (granule exocytosis). PMNs were incubated with 10-10,000 ng/ml PSM, 10 μM fMLP, 10 ng/ml lipopolysaccharide, or 10 μg/ml lipoteichoic acid in 96-well tissue culture plates at 37° C. with rotation for 60 minutes. The assay was terminated by centrifuging cells at 4° C. for 8 minutes at 350×g. Cells were washed twice in cold Dulbecco's phosphate-buffered saline and stained with and isotype control antibody (BD Biosciences) or those specific for CD11b (mAb 44, BD Biosciences) or gp91phox (mAb 7D533). Propidium iodide (0.5 μg/ml) was used to identify dead cells. PMNs were analyzed on a FACSCalibur flow cytometer (Becton Dickinson) and dead cells were excluded with a single gate. Percent positive neutrophils were determined with a marker defined by the boundary of the isotype-matched control antibody.
as §1, with “10-10000” for “10-10,000”, “7D5).” for “7D533).”
Human neutrophil assays: Human neutrophil isolation, chemotaxis, calcium ion flux, priming, lysis assays, and measurement of IL-8 production were performed as described in Example 2.

[2] = tested on: human neutrophils; assay: Interaction of synthetic PSMs with human neutrophils (overall pro-inflammatory activity); details: synthetic PSM peptides, comparison among PSMs
Experimental: (§2) Neutrophils were subjected to a brief hypotonic shock with pyrogen-free water (Sigma), washed, and suspended at 5×10^6 cells/ml in HBSS containing 0.05% human serum albumin (HSA; CLB). Chemotaxis of neutrophils was determined by using fluorescently-labeled neutrophils that migrated through a membrane fitted into an insert of a 24-well microtiter plate transwell system (Costar) containing a prewetted 3-μm-pore-size polycarbonate filter as described (de Haas et al., J Exp Med 199, 687-95, 2004). […] Calcium fluxes were analyzed with a FACScalibur (Becton Dickinson).
Priming of PMNs by synthetic PSMs was determined by increased surface expression of CD11b and gp91phox (granule exocytosis). […] PMNs were analyzed on a FACSCalibur flow cytometer (Becton Dickinson) and dead cells were excluded with a single gate. Percent positive neutrophils were determined with a marker defined by the boundary of the isotype-matched control antibody.
After isolation and washing, PMN or PBMC were resuspended in RPMI 1640 medium (Sigma) supplemented with 10% human serum, 2 mM L-glutamine, 100 U/ml penicillin, 100 μg/ml streptomycin, 2 mM sodium pyruvate, and 10 mM HEPES. […] After removal of supernatant, cells were resuspended in fresh culture medium, counted, and distributed into a 96-well cell culture plate at 100 μl and 2.5×10^5 cells per well. […]

[3] = tested on: human neutrophils; assay: Calcium ion flux in neutrophils (Fluo-3-AM); details: PSM-mec vs PSMα3; range similar to other α-type PSMs, in general higher than β-type PSMs (FIG. 21B)
Experimental: Neutrophils were subjected to a brief hypotonic shock with pyrogen-free water (Sigma), washed, and suspended at 5×10^6 cells/ml in HBSS containing 0.05% human serum albumin (HSA; CLB). Chemotaxis of neutrophils was determined by using fluorescently-labeled neutrophils that migrated through a membrane fitted into an insert of a 24-well microtiter plate transwell system (Costar) containing a prewetted 3-μm-pore-size polycarbonate filter as described (de Haas et al., J Exp Med 199, 687-95, 2004). For measurement of calcium ion fluxes, 5×10^6 neutrophils/ml were loaded with 2 μM Fluo-3-AM (Molecular Probes) in RPMI containing 0.05% HSA (RPMI-HSA) for 20 minutes at room temperature under agitation, washed twice with buffer, and resuspended in RPMI-HSA at 10^6 cells/ml. Calcium fluxes were analyzed with a FACScalibur (Becton Dickinson).
as §2, with “(HAS;” for “(HSA;”, “filter.” for “filter as described (de Haas et al., J Exp Med 199, 687-95, 2004).”, “Dickinson). […]” for “Dickinson).”

Q: What does the source list for fMEFVAKLFKFFKDLLGKFLGNN [PSMα3]?
A: capacity to activate human neutrophils (surface exposure of gp91phox and CD11b) [1]: most potent; pro-inflammatory activity [2]: most pronounced pro-inflammatory activity; calcium flux [3]: most potent
